{
  "source": "patent US20230149318A1",
  "about": "“COMBINATIONS OF NANOPARTICLE-ENCAPSULATED CARGO ENTITIES AND METHODS FOR MAKING AND USING SAME” (Nurevelation, LLC, priority 2021, published 2023)",
  "key": {"[1]": {"settings": "dystonia and parkinsonism due to antipsychotics; cited from earlier work"}, "[2]": {"experiment": "NMR comparison of CBD before and after encapsulation into nanoparticles (stability)", "type": "physicochemical", "settings": "encapsulated CBD (bottom spectrum) relative to non-encapsulated CBD sample (top spectrum), FIG. 3", "from_the_text": "In some aspects, the cannabinoid in the dispersion can have a purity of at least 90%. In a further aspect, the purity of the cannabinoid in the dispersion ranges from 90-100%. In a still further aspect, the purity of the cannabinoid in the dispersion ranges from 92-97%. In general, the inventors have discovered that the encapsulation process described herein can be improved with the use of a pure cannabinoid starting material (e.g., from 92-97% pure). Similarly, the nanoparticle encapsulated cannabinoid products can advantageously maintain the purity of the cannabinoid over extended periods of time. In some aspects, the purity of the cannabinoid starting material can be maintained once encapsulated for a period of twelve months or longer, e.g., 18 months or longer, or even 24 months or longer. The stable shelf life of the cannabinoid nanoparticles is an advantage over many existing methods for delivering cannabinoid products. In some aspects, the stability of the cannabinoid can be measured using NMR, e.g., by comparing a pre-encapsulated cannabinoid to a cannabinoid extracted from a nanoparticle prepared by a disclosed method."}},
  "data": [
    {"smiles": "CN1[C@@H]2CC[C@H]1C[C@@H](OC(c1ccccc1)c1ccccc1)C2", "note": "[Benztropine]", "values": [
      {"measurement": "duration of benefits", "setting": "[1]", "value": "≤ 10", "unit": "h"},
      {"measurement": "time until benefits are seen", "setting": "[1]", "value": "≤ 2", "unit": "h"}
    ]},
    {"smiles": "C=C(C)[C@@H]1CCC(C)=C[C@H]1c1c(O)cc(CCCCC)cc1O", "note": "[CBD, cannabidiol]", "values": [
      {"measurement": "stability of CBD after encapsulation into nanoparticles (NMR spectra)", "setting": "[2]", "value": "remains intact"}
    ]}
  ]
}
